# Source: ChEMBL document CHEMBL5352382, “Synthesis and evaluation of imidazo[1,2-a]pyrazine derivatives as small molecule Gαq/11 inhibitors against uveal melanoma” (Eur J Med Chem, 2022)
# Calls of active or inactive are those of the source. No cut-off for these calls is given here.
# Assays:
# [1] = Antiproliferative activity against human MP41 cells assessed as reduction in cell viability measured after 72 hrs by CCK-8 method; assay type: functional, cell-based; settings: MP41, 72 h
# [2] = Antiproliferative activity against human 921 cells assessed as reduction in cell viability measured after 72 hrs by CCK-8 method; assay type: functional, cell-based; settings: Homo sapiens, 921, 72 h
# [3] = target: GNAQ/GNA11 (Homo sapiens) (UniProt P50148+P29992); assay: Inhibition of Galphaq/11 (unknown origin) expressed in CHO-M1 cells at 10 uM preincubated for 1 hr followed by carbachol stimulation for 30 mins and measured after 1 hr by IP1 accumulation based HTRF assay relative to control; assay type: cell-based; settings: time 150.0 min
# [4] = test system: HEK-293T; assay: Cytotoxicity against HEK293T cells assessed as reduction in cell viability at upto 10 uM measured after 72 hrs by CCK-8 method; assay type: toxicity, cell-based; settings: human
# [5] = test system: BEAS-2B; assay: Cytotoxicity against human BEAS-2B cells assessed as reduction in cell viability at upto 10 uM measured after 72 hrs by CCK-8 method; assay type: toxicity, cell-based
# [6] = test system: MP41; assay: Inhibition of colony formation in human MP41 cells assessed as inhibition of cell proliferation at 1 uM incubated for 14 days with replacement with fresh medium for every 3 days by crystal violet staining based analysis; assay type: functional; settings: time 14.0 day
# [7] = test system: 921; assay: Antiproliferative activity against human 921 cells assessed as reduction in cell viability at 10 uM measured after 72 hrs by CCK-8 method; assay type: functional, cell-based
# [8] = test system: MP41; assay: Antiproliferative activity against human MP41 cells assessed as reduction in cell viability at 10 uM measured after 72 hrs by CCK-8 method; assay type: functional, cell-based
# [9] = test system: MP41; assay: Inhibition of cell migration in human MP41 cells at 1 uM incubated for 24 hrs by wound healing assay; assay type: functional, cell-based
# [10] = test system: SK-MEL-2; assay: Antiproliferative activity against human SK-MEL-2 cells assessed as reduction in cell viability at 10 uM measured after 72 hrs by CCK-8 method; assay type: functional, cell-based
# [11] = test system: A-375; assay: Antiproliferative activity against human A-375 cells assessed as reduction in cell viability at 10 uM measured after 72 hrs by CCK-8 method; assay type: functional, cell-based
inhibition [3],Structure (SMILES),IC50 [1],IC50 [2],further results
10.2%,CC[C@H](C)[C@H](N)C(=O)N1CCn2cc(-c3cc(Cl)ccc3Cl)nc2[C@@H]1CC1CCCCC1,11 µM,6.8 µM,–
13.1%,CC[C@H](C)[C@H](N)C(=O)N1CCn2cc(-c3ccc4ccccc4c3)nc2[C@@H]1CC1CCCCC1,15.5 µM,18.8 µM,–
16.8%,CC[C@H](C)[C@H](N)C(=O)N1CCn2cc(-c3cc(F)cc(Cl)c3)nc2[C@@H]1CC1CCCCC1,10.9 µM,12.9 µM,–
12.2%,N[C@H](CN1CCn2cc(-c3ccc4c(c3)CCCC4)nc2[C@@H]1CC1CCCCC1)C1CCCCC1,5.9 µM,4.1 µM,Activity [4]: Toxic; Activity [5]: Toxic
13.2%,CC[C@H](C)[C@H](N)C(=O)N1CCn2cc(-c3cc(Cl)c(Cl)c(Cl)c3)nc2[C@@H]1CC1CCCCC1,7.8 µM,5.9 µM,–
19.4%,CC[C@H](C)[C@H](N)C(=O)N1CCn2cc(-c3cccc(I)c3)nc2[C@@H]1CC1CCCCC1,18.1 µM,9.1 µM,–
6.8%,c1cc2c(cc1-c1cn3c(n1)[C@H](CC1CCCCC1)N(CCN1CCCCC1)CC3)CCCC2,12.8 µM,6.8 µM,–
10.4%,CC[C@H](C)[C@H](N)C(=O)N1CCn2cc(-c3ccc4c(c3)CCCC4)nc2[C@@H]1C1CCCCC1,8.4 µM,9.3 µM,–
19%,CN1CCC[C@H]1CN1CCn2cc(-c3ccc4c(c3)CCCC4)nc2[C@@H]1CC1CCCCC1,15.2 µM,5 µM,–
10.8%,CC[C@H](C)[C@H](N)C(=O)N1CCn2cc(-c3cccc(N)c3)nc2[C@@H]1CC1CCCCC1,> 40 µM,> 40 µM,–
26.2%,CC[C@H](C)[C@H](N)C(=O)N1CCn2cc(-c3cccc(Cl)c3)nc2[C@@H]1CC1CCCCC1,11.2 µM,10 µM,–
8.9%,CN1CCN(CCN2CCn3cc(-c4ccc5c(c4)CCCC5)nc3[C@@H]2CC2CCCCC2)CC1,11 µM,6.5 µM,–
26.6%,CC[C@H](C)[C@H](N)C(=O)N1CCn2cc(-c3ccccc3)nc2[C@@H]1CC1CCCCC1,24.1 µM,10.5 µM,–
11.9%,CC[C@H](C)[C@H](N)CN1CCn2cc(-c3ccc4c(c3)CCCC4)nc2[C@@H]1CC1CCCCC1,17.4 µM,4.8 µM,–
31.9%,CC[C@H](C)[C@H](N)C(=O)N1CCn2cc(-c3ccc(C)cc3)nc2[C@@H]1CC1CCCCC1,10.9 µM,9.7 µM,–
17.1%,CN(C)CCN1CCn2cc(-c3ccc4c(c3)CCCC4)nc2[C@@H]1CC1CCCCC1,9.3 µM,4.9 µM,–
15%,CC[C@H](C)[C@H](N)C(=O)N1CCn2cc(-c3ccccc3C)nc2[C@@H]1CC1CCCCC1,7.1 µM,8.8 µM,–
4.1%,CC[C@H](C)[C@H](N)C(=O)N1CCn2cc(-c3cccc(C(=O)OC)c3)nc2[C@@H]1CC1CCCCC1,16.2 µM,25 µM,–
24.2%,CC[C@H](C)[C@H](N)C(=O)N1CCn2cc(-c3cccc(Cl)c3OC)nc2[C@@H]1CC1CCCCC1,7.9 µM,11.3 µM,–
20.8%,CC[C@H](C)[C@H](N)C(=O)N1CCn2cc(-c3cccc(C#N)c3)nc2[C@@H]1CC1CCCCC1,9.9 µM,34.5 µM,–
29.5%,CC[C@H](C)[C@H](N)C(=O)N1CCn2cc(-c3cccc(C)c3)nc2[C@@H]1CC1CCCCC1,6.2 µM,24.3 µM,–
11.5%,CC[C@H](C)[C@H](N)C(=O)N1CCn2cc(-c3ccc4c(c3)CCCC4)nc2[C@@H]1CC,30.2 µM,22.3 µM,–
17.5%,CC[C@H](C)[C@H](N)C(=O)N1CCn2cc(-c3cccc([N+](=O)[O-])c3)nc2[C@@H]1CC1CCCCC1,10.1 µM,12.2 µM,–

inhibition [3],Structure (SMILES),IC50 [1],IC50 [2],further results
13.7%,CC[C@H](C)[C@H](N)C(=O)N1CCn2cc(-c3cccc(C)c3C)nc2[C@@H]1CC1CCCCC1,12.8 µM,7 µM,–
24.4%,CC[C@H](C)[C@H](N)C(=O)N1CCn2cc(-c3ccccc3Cl)nc2[C@@H]1CC1CCCCC1,11.6 µM,7.9 µM,–
21.9%,CC[C@H](C)[C@H](N)C(=O)N1CCn2cc(-c3cccc(Br)c3)nc2[C@@H]1CC1CCCCC1,10.6 µM,8.4 µM,–
13.2%,CC[C@H](C)[C@H](N)C(=O)N1CCn2cc(-c3ccc(Cl)c(Cl)c3)nc2[C@@H]1CC1CCCCC1,9.9 µM,6.6 µM,–
19.9%,CC[C@H](C)[C@H](N)C(=O)N1CCn2cc(-c3cccc(Cl)c3Cl)nc2[C@@H]1CC1CCCCC1,9.2 µM,13.8 µM,–
10.9%,N[C@@H](CSSC[C@H](N)C(=O)N1CCn2cc(-c3ccccc3)nc2[C@@H]1CC1CCCCC1)C(=O)N1CCn2cc(-c3ccccc3)nc2[C@@H]1CC1CCCCC1,10.2 µM,14.3 µM,inhibition [6]: Active; Activity [7]: Active; Activity [8]: Active; inhibition [9]: Active; Activity [10]: Active; Activity [11]: Active
10.8%,c1cc2c(cc1-c1cn3c(n1)[C@H](CC1CCCCC1)N(CCNC1CCCC1)CC3)CCCC2,9.7 µM,6.4 µM,–
12.4%,CC[C@H](C)[C@H](N)C(=O)N1CCn2cc(-c3cccc(OC(F)(F)F)c3)nc2[C@@H]1CC1CCCCC1,> 40 µM,> 40 µM,–
16.3%,CC[C@H](C)[C@H](N)C(=O)N1CCn2cc(-c3cccc(F)c3F)nc2[C@@H]1CC1CCCCC1,25.9 µM,3.2 µM,–
12.8%,CC[C@H](C)[C@H](N)C(=O)N1CCn2cc(-c3cc(Cl)cc(Cl)c3)nc2[C@@H]1CC1CCCCC1,10.9 µM,10.1 µM,–
10.3%,CC[C@H](C)[C@H](N)C(=O)N1CCn2cc(-c3ccc4c(c3)CCCC4)nc2[C@H]1C(C)C,21.4 µM,11.6 µM,–
17.8%,CC[C@H](C)[C@H](N)C(=O)N1CCn2cc(-c3cccc(F)c3)nc2[C@@H]1CC1CCCCC1,19.8 µM,5 µM,–
3.6%,CC[C@H](C)[C@H](N)C(=O)N1CCn2cc(-c3ccc4c(c3)CCCC4)nc2[C@H]1CC(C)C,13.9 µM,8.3 µM,–
7.4%,CC[C@H](C)[C@H](N)C(=O)N1CCn2cc(-c3ccc(Cl)c(C)c3)nc2[C@@H]1CC1CCCCC1,5.8 µM,8.2 µM,–
6.9%,CC(C)(C)NCCN1CCn2cc(-c3ccc4c(c3)CCCC4)nc2[C@@H]1CC1CCCCC1,8.7 µM,5.2 µM,–
8.5%,CC[C@H](C)[C@H](N)C(=O)N1CCn2cc(-c3cccc(C(=O)O)c3)nc2[C@@H]1CC1CCCCC1,> 40 µM,> 40 µM,–
13%,CC[C@H](C)[C@H](N)C(=O)N1CCn2cc(-c3cccc(S(C)(=O)=O)c3)nc2[C@@H]1CC1CCCCC1,> 40 µM,> 40 µM,–
15.9%,CCC[C@H](N)CN1CCn2cc(-c3ccc4c(c3)CCCC4)nc2[C@@H]1CC1CCCCC1,9 µM,2.8 µM,–
26.5%,CC[C@H](C)[C@H](N)C(=O)N1CCn2cc(-c3ccc(Cl)cc3)nc2[C@@H]1CC1CCCCC1,10.1 µM,9.4 µM,–
9.4%,CC[C@H](C)[C@H](N)C(=O)N1CCn2cc(-c3ccc4c(c3)CCCC4)nc2[C@@H]1C(C)C,19.8 µM,13 µM,–
5.2%,CCC[C@H]1c2nc(-c3ccc4c(c3)CCCC4)cn2CCN1C(=O)[C@@H](N)[C@@H](C)CC,18.4 µM,12.6 µM,–
15.7%,CC(C)C[C@H](N)CN1CCn2cc(-c3ccc4c(c3)CCCC4)nc2[C@@H]1CC1CCCCC1,7.5 µM,3.1 µM,Activity [4]: Toxic; Activity [5]: Toxic
20.2%,CC[C@H](C)[C@H](N)C(=O)N1CCn2cc(-c3ccc4c(c3)OCO4)nc2[C@@H]1CC1CCCCC1,12.8 µM,18.5 µM,–
